# Test results reported in patent publication US20080287472A1 (priority 2002, published 2008).
# What was measured:
# [1] = system: Pyricularia oryzae (rice blast); type: in vivo; details: 200 ppm, rice leaf segments, sprayed before inoculation, assessed four days after inoculation
# [2] = system: Erysiphe graminis f.sp. hordei (barley powdery mildew); details: in vivo
# [3] = system: Erysiphe graminis f.sp. tritici (wheat powdery mildew); details: in vivo
SMILES,melting point,control of disease [1],control of disease [2],control of disease [3]
CCC(C)Nc1nc2ncncc2c(Cl)c1-c1c(F)cc(F)cc1F (stereo not shown),179 °C,–,–,–
"CC(C)Nc1c(-c2c(F)cc(F)cc2F)c(Cl)nc2cncnc12 [Compound 3 (1), [6-chloro-7-(2,4,6-trifluorophenyl)-pyrido[3,2-d]pyrimidin-8-yl]-isopropylamine]",–,greater than 60%,greater than 60%,greater than 60%
